# According to US5143918A, “Halomacrolides and derivatives having immunosuppressive activity” (Merck & Co., Inc., priority 1991, dated 1992):
# Where two headings read alike, the source gives them in different places.
# Tests used:
# [1] = tested on: T lymphocytes (T-cells); assay: T-Cell Proliferation Assay (tritiated thymidine uptake); assay type: cell-based, C57B1/6 mice; conditions: mouse spleen T lymphocytes, ionomycin 250 ng/ml and PMA 10 ng/ml, 44 h culture + 4 h tritiated thymidine, read-out: IC50 (concentration of compound required to inhibit tritiated thymidine uptake / proliferation of T-cells by 50%)
# Experimental: T-Cell Proliferation Assay
# The compounds to be assayed were dissolved in absolute ethanol at 1 mg/ml.
# Spleens from C57B1/6 mice were taken under sterile conditions and gently dissociated in ice-cold RPMI 1640 culture medium (GIBC), Grand Island, N.Y.) supplemented with 10% heat-inactivated fetal calf serum (GIBO)). Cells were pelleted by centrifugation at 1500 rpm for 8 minutes. Contaminating red cells were removed by treating the pellet with ammonium chloride lysing buffer (GIBO)) for 2 minutes at 4° C. Cold medium was added and cells were again centrifuged at 1500 rpm for 8 minutes. T lymphocytes were then isolated by separation of the cell suspension on nylon wool columns as follows: Nylon wool columns were prepared by packing approximately 4 grams of washed and dried nylon wool into 20 ml plastic syringes. The columns were sterilized by autoclaving at […]. for 30 minutes. Nylon wool columns were wetted with warm (37° C.) culture medium and rinsed with the same medium. Washed spleen cells resuspened in warm medium were slowly applied to the nylon wool. The columns were then incubated in an upright position at 37° C. for 1 hour. Non-adherent T lymphocytes were eluted from the columns with warm culture medium and the cell suspensions were spun as above.
# Purified T lymphocytes were resuspended at 2.5×10^5 cells/ml in complete culture medium composed of RPMI 1640 medium with 10% heat-inactivated fetal calf serum, […], 1 mM sodium pyruvate, 2×10^-5 M 2-mercaptoethanol and 50 μg/ml gentamycin. Ionomycin was added at 250 ng/ml and PMA at 10 ng/ml. The cell suspension was immediately distributed into 96 well flat-bottom microculture plates (Costar) at 200 μl/well. The various dilutions of the compound to be tested were then added in triplicate wells at 20 ul/well. The compound 17-allyl-1,14-dihydroxy-12-[2'-(4"-hydroxy-3"-methoxycyclohexyl)-1'-methylvinyl]-23,25-dimethoxy-13,19,21,27-tetramethyl-11,28-dioxa-4-azatricyclo[22.3.1.0^4,9 ]octacos-18-ene-2,3,10,16-tetraone was used as a standard. The culture plates were then incubated at 37° C. in a humidified atmosphere of 5% CO2 -95% air for 44 hours. The proliferation of T lymphocytes was assessed by measurement of tritiated thymidine incorporation. After 44 hours of culturing, the cells were pulse-labelled with 2 μCi/well of tritiated thymidine (NEN, Cambridge, Mass.). After another 4 hours of incubation, cultures were harvested on glass fiber filters using a multiple sample harvester. Radio activity of filter discs corresponding to individual wells was measured by standard liquid scintillation counting methods (Betacounter). Mean counts per minute of replicate wells were calculated and the results expressed as concentration of compound required to inhibit tritiated thymidine uptake of T-cells by 50%.
# A selection of compounds were tested according to the previous procedure. The concentration of compound required to inhibit the proliferation of T-cells by 50% was measured, and the results were as follows: […]
# [2] = tested on: in vitro immune systems; conditions: versus cyclosporin; J. Antibiotics 1987, 40, 1256; cited from earlier work
compound,measurement,setting,value
"17-Ethyl-1-hydroxy-12-[2'-(3""-chloro-4""-hydroxycyclohexyl)-1'-methylvinyl]- 23,25-dimethoxy-13,19,21,27-tetramethyl-11,28-dioxa-4-azatricyclo[22.3.1.0^4,9 ]octacos-18-ene-2,3,10,16-tetraone [Example 87]",IC50,[1],< 1 µM
"CCC1C=C(C)CC(C)CC(OC)C2OC(O)(C(=O)C(=O)N3CCCCC3C(=O)OC(C(C)=CC3CCC(Cl)C(OC)C3)C(C)CCC1=O)C(C)CC2OC (stereo not drawn) [Example 40, 17-Ethyl-1-hydroxy-12-[2'-(4""-beta-chloro-3""-methoxycyclohexyl)-1'-methylvinyl]-23,25-dimethoxy-13,19,21,27-tetramethyl-11,28-dioxa-4-azatricyclo-[22.3.1.0^4,9]octacos-18-ene-2,3,10,16-tetraone]",IC50,[1]; T-cell,< 1 µM
"CCC1C=C(C)CC(C)CC(OC)C2OC(O)(C(=O)C(=O)N3CCCCC3C(=O)OC(C(C)=CC3CCC(Cl)C(OC)C3)C(C)C(O)CC1=O)C(C)CC2OC (stereo not drawn) [Example 53, 17-Ethyl-1,14-dihydroxy-12-[2'-(4""-beta-chloro-3""-methoxycyclohexyl)-1'-methylvinyl]-23,25-dimethoxy-13,19,21,27-tetramethyl-11,28-dioxa-4-azatricyclo[22.3.1.0^4,9]octacos-18-ene-2,3,10,16-tetraone]",IC50,[1]; T-cell,< 1 µM
"CCC1C=C(C)CC(C)CC(OC)C2OC(O)(C(=O)C(=O)N3CCCCC3C(=O)OC(C(C)=CC3CCC(Br)C(OC)C3)C(C)C(O)CC1=O)C(C)CC2OC (stereo not drawn) [Example 56, 17-Ethyl-1,14-dihydroxy-12-[2'-(4""-beta-bromo-3""-methoxycyclohexyl)-1'-methylvinyl]-23,25-dimethoxy-13,19,21,27-tetramethyl-11,28-dioxa-4-azatricyclo[22.3.1.0^4,9]octacos-18-ene-2,3,10,16-tetraone]",IC50,[1]; T-cell,< 1 µM
"CCC1C=C(C)CC(C)CC(OC)C2OC(O)(C(=O)C(=O)N3CCCCC3C(=O)OC(C(C)=CC3CCC(I)C(OC)C3)C(C)C(O)CC1=O)C(C)CC2OC (stereo not drawn) [Example 59, 17-Ethyl-1,14-dihydroxy-12-[2'-(4""-beta-iodo-3""-methoxycyclohexyl)-1'-methylvinyl]-23,25-dimethoxy-13,19,21,27-tetramethyl-11,28-dioxa-4-azatricyclo-[22.3.1.0^4,9]octacos-18-ene-2,3,10,16-tetraone]",IC50,[1],< 1 µM
"CCC1C=C(C)CC(C)CC(OC)C2OC(O)(C(=O)C(=O)N3CCCCC3C(=O)OC(C(C)=CC3CCC(F)C(OC)C3)C(C)C(O)CC1=O)C(C)CC2OC (centres unmarked) [Example 62, 17-Ethyl-1,14-dihydroxy-12-[2'-(4""-fluoro-3""-methoxycyclohexyl)-1'-methylvinyl]-23,25-dimethoxy-13,19,21,27-tetramethyl-11,28-dioxa-4-azatricyclo-[22.3.1.0^4,9]octacos-18-ene-2,3,10,16-tetraone]",IC50,[1]; T-cell,< 1 µM
"CCC1C=C(C)CC(C)CC(OC)C2OC(O)(C(=O)C(=O)N3CCCCC3C(=O)OC(C(C)=CC3CCC(O)C(Br)C3)C(C)CCC1=O)C(C)CC2OC (centres unmarked) [Example 89, 17-Ethyl-1-hydroxy-12-[2'-(3""-bromo-4""-hydroxycyclohexyl)-1'-methylvinyl]-23,25-dimethoxy-13,19,21,27-tetramethyl-11,28-dioxa-4-azatricyclo[22.3.1.0^4,9]octacos-18-ene-2,3,10,16-tetraone]",IC50,[1]; T-cell,< 1 µM
"C=CCC1C=C(C)CC(C)CC(OC)C2OC(O)(C(=O)C(=O)N3CCCCC3C(=O)OC(C(C)=CC3CCC(O)C(OC)C3)C(C)C(O)CC1=O)C(C)CC2OC (centres unmarked) [FR-900506, 17-allyl-1,14-dihydroxy-12-[2'-(4""-hydroxy-3""-methoxycyclohexyl)-1'-methylvinyl]-23,25-dimethoxy-13,19,21,27-tetramethyl-11,28-dioxa-4-azatricyclo-[22.3.1.0^4,9]octacos-18-ene-2,3,10,16-tetraone]",times more effective than cyclosporin in the suppression of in vitro immune systems,[2],100 times
